From patent publication US8192962B2, “Processes for detecting toxic substances” (Daikin Industries, Ltd., priority 2001, dated 2012)

Test system: Transport facilitation protein genes
Assay: DNA chip mRNA expression in yeast, transport facilitation protein genes (Table 5)
Assay type: cell-based, Saccharomyces cerevisiae S288C
Summary of the method: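 Untreated cultures served as reference for log-phase S288C yeast given a growth-inhibiting, non-lethal toxicant dose for 2 h at 25° C. in YPD. Gene expression was measured on a whole-genome DNA chip from Cy3/Cy5-labeled cDNA.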

SMILES: CCCCCCCCCCCCOS(=O)(=O)[O-].[Na+] [(18), sodium lauryl sulfate]
- The level of expressed mRNA in the presence of chemical substance/The level of expressed mRNA in the absence of chemical substance (yeast gene YBL030C): 1.1
- The level of expressed mRNA in the presence of chemical substance/The level of expressed mRNA in the absence of chemical substance (yeast gene YBL099W): 1.2
- The level of expressed mRNA in the presence of chemical substance/The level of expressed mRNA in the absence of chemical substance (yeast gene YBR052C): 3.1
- The level of expressed mRNA in the presence of chemical substance/The level of expressed mRNA in the absence of chemical substance (yeast gene YBR068C): 1.3
- The level of expressed mRNA in the presence of chemical substance/The level of expressed mRNA in the absence of chemical substance (yeast gene YBR127C): 1.0
- The level of expressed mRNA in the presence of chemical substance/The level of expressed mRNA in the absence of chemical substance (yeast gene YBR132C): 1.3
- The level of expressed mRNA in the presence of chemical substance/The level of expressed mRNA in the absence of chemical substance (yeast gene YBR207W): 1.4
- The level of expressed mRNA in the presence of chemical substance/The level of expressed mRNA in the absence of chemical substance (yeast gene YBR293W): 0.9
- The level of expressed mRNA in the presence of chemical substance/The level of expressed mRNA in the absence of chemical substance (yeast gene YBR294W): 0.9
- The level of expressed mRNA in the presence of chemical substance/The level of expressed mRNA in the absence of chemical substance (yeast gene YBR295W): 1.2
- The level of expressed mRNA in the presence of chemical substance/The level of expressed mRNA in the absence of chemical substance (yeast gene YBR298C): 0.8
- The level of expressed mRNA in the presence of chemical substance/The level of expressed mRNA in the absence of chemical substance (yeast gene YCL025C): 0.6
- The level of expressed mRNA in the presence of chemical substance/The level of expressed mRNA in the absence of chemical substance (yeast gene YCL038C): 1.5
- The level of expressed mRNA in the presence of chemical substance/The level of expressed mRNA in the absence of chemical substance (yeast gene YCR024C-A): 1.4
- The level of expressed mRNA in the presence of chemical substance/The level of expressed mRNA in the absence of chemical substance (yeast gene YCR037C): 0.9
- The level of expressed mRNA in the presence of chemical substance/The level of expressed mRNA in the absence of chemical substance (yeast gene YCR098C): 1.6
- The level of expressed mRNA in the presence of chemical substance/The level of expressed mRNA in the absence of chemical substance (yeast gene YDL128W): 1.0
- The level of expressed mRNA in the presence of chemical substance/The level of expressed mRNA in the absence of chemical substance (yeast gene YDL198C): 1.1
- The level of expressed mRNA in the presence of chemical substance/The level of expressed mRNA in the absence of chemical substance (yeast gene YDL210W): 0.9
- The level of expressed mRNA in the presence of chemical substance/The level of expressed mRNA in the absence of chemical substance (yeast gene YDL245C): 1.1
- The level of expressed mRNA in the presence of chemical substance/The level of expressed mRNA in the absence of chemical substance (yeast gene YDR038C): 1.5
- The level of expressed mRNA in the presence of chemical substance/The level of expressed mRNA in the absence of chemical substance (yeast gene YDR039C): 1.6
- The level of expressed mRNA in the presence of chemical substance/The level of expressed mRNA in the absence of chemical substance (yeast gene YDR086C): 1.9
- The level of expressed mRNA in the presence of chemical substance/The level of expressed mRNA in the absence of chemical substance (yeast gene YDR270W): 0.7
- The level of expressed mRNA in the presence of chemical substance/The level of expressed mRNA in the absence of chemical substance (yeast gene YDR298C): 1.6
- The level of expressed mRNA in the presence of chemical substance/The level of expressed mRNA in the absence of chemical substance (yeast gene YDR342C): 2.2
- The level of expressed mRNA in the presence of chemical substance/The level of expressed mRNA in the absence of chemical substance (yeast gene YDR343C): 2.3
- The level of expressed mRNA in the presence of chemical substance/The level of expressed mRNA in the absence of chemical substance (yeast gene YDR345C): 1.8
- The level of expressed mRNA in the presence of chemical substance/The level of expressed mRNA in the absence of chemical substance (yeast gene YDR387C): 1.1
- The level of expressed mRNA in the presence of chemical substance/The level of expressed mRNA in the absence of chemical substance (yeast gene YDR497C): 1.8
- The level of expressed mRNA in the presence of chemical substance/The level of expressed mRNA in the absence of chemical substance (yeast gene YEL027W): 1.4
- The level of expressed mRNA in the presence of chemical substance/The level of expressed mRNA in the absence of chemical substance (yeast gene YEL063C): 0.7
- The level of expressed mRNA in the presence of chemical substance/The level of expressed mRNA in the absence of chemical substance (yeast gene YEL065W): 0.6
- The level of expressed mRNA in the presence of chemical substance/The level of expressed mRNA in the absence of chemical substance (yeast gene YER053C): 2.3
- The level of expressed mRNA in the presence of chemical substance/The level of expressed mRNA in the absence of chemical substance (yeast gene YFL011W): 1.0
- The level of expressed mRNA in the presence of chemical substance/The level of expressed mRNA in the absence of chemical substance (yeast gene YFL041W): 0.9
- The level of expressed mRNA in the presence of chemical substance/The level of expressed mRNA in the absence of chemical substance (yeast gene YFL050C): 1.0
- The level of expressed mRNA in the presence of chemical substance/The level of expressed mRNA in the absence of chemical substance (yeast gene YFL054C): 1.4
- The level of expressed mRNA in the presence of chemical substance/The level of expressed mRNA in the absence of chemical substance (yeast gene YGL006W): 4.1
- The level of expressed mRNA in the presence of chemical substance/The level of expressed mRNA in the absence of chemical substance (yeast gene YGL008C): 1.0
- The level of expressed mRNA in the presence of chemical substance/The level of expressed mRNA in the absence of chemical substance (yeast gene YGL104C): 1.3
- The level of expressed mRNA in the presence of chemical substance/The level of expressed mRNA in the absence of chemical substance (yeast gene YGL167C): 1.4
- The level of expressed mRNA in the presence of chemical substance/The level of expressed mRNA in the absence of chemical substance (yeast gene YGL255W): 0.5
- The level of expressed mRNA in the presence of chemical substance/The level of expressed mRNA in the absence of chemical substance (yeast gene YGR055W): 0.7
- The level of expressed mRNA in the presence of chemical substance/The level of expressed mRNA in the absence of chemical substance (yeast gene YGR065C): 0.7
- The level of expressed mRNA in the presence of chemical substance/The level of expressed mRNA in the absence of chemical substance (yeast gene YGR082W): 0.8
- The level of expressed mRNA in the presence of chemical substance/The level of expressed mRNA in the absence of chemical substance (yeast gene YGR096W): 1.0
- The level of expressed mRNA in the presence of chemical substance/The level of expressed mRNA in the absence of chemical substance (yeast gene YGR138C): 0.7
- The level of expressed mRNA in the presence of chemical substance/The level of expressed mRNA in the absence of chemical substance (yeast gene YGR191W): 0.8
- The level of expressed mRNA in the presence of chemical substance/The level of expressed mRNA in the absence of chemical substance (yeast gene YGR197C): 1.9
